Key:
LBP-8 = target: T1, LBP-8 (Caenorhabditis elegans, UniProt O02324); experiment: fluorescence displacement of […],8-ANS; format: binding
T1 sequence (O02324 1-137): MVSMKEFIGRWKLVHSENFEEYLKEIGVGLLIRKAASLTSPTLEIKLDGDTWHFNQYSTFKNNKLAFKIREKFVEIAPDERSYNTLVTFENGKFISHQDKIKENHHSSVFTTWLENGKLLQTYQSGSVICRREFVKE

NHR-80 = target: T2, NHR-80 (Caenorhabditis elegans, UniProt Q8ITW8); experiment: intrinsic fluorescence quenching of GST-NHR-80 with increasing OEA; format: binding
T2 sequence (Q8ITW8 1-504): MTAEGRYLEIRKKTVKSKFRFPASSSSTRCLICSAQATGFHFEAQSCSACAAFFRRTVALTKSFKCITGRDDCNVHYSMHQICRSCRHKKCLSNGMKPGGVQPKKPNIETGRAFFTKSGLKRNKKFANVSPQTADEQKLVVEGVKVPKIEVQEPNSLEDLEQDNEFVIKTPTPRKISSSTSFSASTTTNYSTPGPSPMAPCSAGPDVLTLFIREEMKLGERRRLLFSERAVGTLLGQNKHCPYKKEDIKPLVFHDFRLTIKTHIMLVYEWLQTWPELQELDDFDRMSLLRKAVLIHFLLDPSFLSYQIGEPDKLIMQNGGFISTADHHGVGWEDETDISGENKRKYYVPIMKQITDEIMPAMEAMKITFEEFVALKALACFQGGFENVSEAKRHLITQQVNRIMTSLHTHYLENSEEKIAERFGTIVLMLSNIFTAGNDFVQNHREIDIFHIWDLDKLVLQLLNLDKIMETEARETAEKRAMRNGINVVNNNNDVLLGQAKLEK

Kd (NHR-80)	Structure (SMILES)	fluorescence displacement of 1,8-ANS (LBP-8)
–	CCCCC/C=C\C/C=C\C/C=C\CCCCCCC(=O)O [DGLA, dihomo-γ-linolenic acid]	In fluorescence-based binding assays, all four lipids bound to LBP-8
–	CC/C=C\C/C=C\C/C=C\C/C=C\CCCCCCC(=O)O [ω-3 AA, ω-3 arachidonic acid]	In fluorescence-based binding assays, all four lipids bound to LBP-8
7.84 µM	CCCCCCCC/C=C\CCCCCCCC(=O)NCCO [OEA, oleoylethanolamide]	–
–	CCCCC/C=C\C/C=C\C/C=C\C/C=C\CCCC(=O)O [AA, arachidonic acid]	In fluorescence-based binding assays, all four lipids bound to LBP-8

From paper PMC4425353 (Science (New York, N.Y.), 2015)
